# Data published in US20250145633A1, “SUBSTITUTED FURANOPYRIMIDINE COMPOUNDS AS PDE1 INHIBITORS” (Dart NeuroScience, LLC, priority 2017, published 2025).
# Target: human PDE1B enzyme (Homo sapiens (Human), UniProt Q01064)
# Experiment: IMAP TR-FRET PDE1B enzymatic assay
# Format: biochemical
# Details: negative log of half-maximal molar inhibitory concentration; 200 nM FAM-cAMP; values given as bins
# How it was run: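 Full-length GST-tagged human PDE1B (250 pg/well) in IMAP BSA buffer with 10 U/ml calmodulin and 2.5 mM CaCl2; compound pre-incubated 5 min at room temperature, then 200 nM (final) FAM-cAMP for 30 min. IMAP binding reagent/Tb added, 1 h; TR-FRET 520/490 ratio read. IC50 from sigmoidal dose-response fit.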
row,Compound,PDE1b (pIC50)
1,"CCC(NC(=O)c1c(C)oc2ncnc(NC3(C)CC3)c12)c1ccc(OC)cc1 (centres unmarked) [Example 475, N-[1-(4-Methoxyphenyl)propyl]-6-methyl-4-[(1-methylcyclopropyl)amino]furo[2,3-d]pyrimidine-5-carboxamide]",>8
2,"Cc1oc2ncnc(NC3(C)CC3)c2c1C(=O)NC1CCN(C)CC1 [Example 193, 6-Methyl-4-[(1-methylcyclopropyl)amino]-N-(1-methylpiperidin-4-yl)furo[2,3-d]pyrimidine-5-carboxamide]",<6

# Same assay, conditions: negative log of half-maximal molar inhibitory concentration; 200 nM FAM-cAMP; values given as bins; read-out: PDE1b (pIC50) (converted)
row,Compound,IC50
1,"COc1cnc(C2CCN(C(=O)c3c(C)oc4ncnc(NC5(C)CC5)c34)CC2)nc1C [Example 423, 5-[4-(5-Methoxy-4-methylpyrimidin-2-yl)piperidine-1-carbonyl]-6-methyl-N-(1-methylcyclopropyl)furo[2,3-d]pyrimidin-4-amine]",10 to 100 nM
2,"COc1cc(CN(C(=O)c2c(C)oc3ncnc(NC4(C)CC4)c23)C2CC2)ncn1 [Example 28, N-Cyclopropyl-N-[(6-methoxypyrimidin-4-yl)methyl]-6-methyl-4-[(1-methylcyclopropyl)amino]furo[2,3-d]pyrimidine-5-carboxamide]",10 to 100 nM
3,"Cc1oc2ncnc(NC3(C)CC3)c2c1C(=O)N(C)Cc1ncco1 [Example 692, N,6-Dimethyl-4-[(1-methylcyclopropyl)amino]-N-(1,3-oxazol-2-ylmethyl)furo[2,3-d]pyrimidine-5-carboxamide]",100 to 1000 nM
4,"Cc1oc2ncnc(NC3(C)CC3)c2c1C(=O)N[C@H]1C[C@@H](F)C1 [Example 127, 6-Methyl-4-[(1-methylcyclopropyl)amino]-N-[(1S,3S)-3-fluorocyclobutyl]furo[2,3-d]pyrimidine-5-carboxamide]",100 to 1000 nM
5,"Cc1oc2ncnc(NC3(C)CC3)c2c1C(=O)N1CCOCC1 [Example 117, 6-Methyl-N-(1-methylcyclopropyl)-5-(morpholine-4-carbonyl)furo[2,3-d]pyrimidin-4-amine]",100 to 1000 nM
6,"Cc1ccc(NC(=O)c2c(C)oc3ncnc(NC4(C)CC4)c23)nc1 [Example 438, 6-Methyl-4-[(1-methylcyclopropyl)amino]-N-(5-methylpyridin-2-yl)furo[2,3-d]pyrimidine-5-carboxamide]",100 to 1000 nM
7,"Cc1oc2ncnc(NC3(C)CC3)c2c1C(=O)NCC1CCCCC1 [Example 192, N-(Cyclohexylmethyl)-6-methyl-4-[(1-methylcyclopropyl)amino]furo[2,3-d]pyrimidine-5-carboxamide]",10 to 100 nM
8,"Cc1oc2ncnc(NC3(C)CC3)c2c1C(=O)N1CC[C@@H]2CCCC[C@H]2C1 (stereo in doubt) [Example 271, 5-[(4aS,8aR)-Decahydroisoquinoline-2-carbonyl]-6-methyl-N-(1-methylcyclopropyl)furo[2,3-d]pyrimidin-4-amine]",10 to 100 nM
9,"Cc1oc2ncnc(NC3(C)CC3)c2c1C(=O)N1CCc2c(nc(-c3ccc(F)cc3)[nH]c2=O)C1 [Example 424, 2-(4-Fluorophenyl)-7-{6-methyl-4-[(1-methylcyclopropyl)amino]furo[2,3-d]pyrimidine-5-carbonyl}-3H,4H,5H,6H,7H,8H-pyrido[3,4-d]pyrimidin-4-one]",10 to 100 nM
10,"Cc1oc2ncnc(NC3(C)CC3)c2c1C(=O)NC(C)(C)CF [Example 374, N-(1-Fluoro-2-methylpropan-2-yl)-6-methyl-4-[(1-methylcyclopropyl)amino]furo[2,3-d]pyrimidine-5-carboxamide]",10 to 100 nM
11,"Cc1oc2ncnc(NC3(C)CC3)c2c1C(=O)Nc1ccc(N2CCOCC2)cn1 [Example 46, 6-Methyl-4-[(1-methylcyclopropyl)amino]-N-[5-(morpholin-4-yl)pyridin-2-yl]furo[2,3-d]pyrimidine-5-carboxamide]",100 to 1000 nM
12,"Cc1oc2ncnc(NC3(C)CC3)c2c1C(=O)N1CCc2ccc(OCF)cc2C1 [Example 767, 5-[7-(Fluoromethoxy)-1,2,3,4-tetrahydroisoquinoline-2-carbonyl]-6-methyl-N-(1-methylcyclopropyl)furo[2,3-d]pyrimidin-4-amine]",10 to 100 nM
13,"Cc1oc2ncnc(NC3(C)CC3)c2c1C(=O)Nc1ccn(-c2ncccc2F)n1 [Example 446, N-[1-(3-Fluoropyridin-2-yl)-1H-pyrazol-3-yl]-6-methyl-4-[(1-methylcyclopropyl)amino]furo[2,3-d]pyrimidine-5-carboxamide]",10 to 100 nM
14,"Cc1oc2ncnc(NC3(C)CC3)c2c1C(=O)N1CCC(c2ncc(F)cn2)CC1 [Example 356, 5-[4-(5-Fluoropyrimidin-2-yl)piperidine-1-carbonyl]-6-methyl-N-(1-methylcyclopropyl)furo[2,3-d]pyrimidin-4-amine]",10 to 100 nM
15,"Cc1oc2ncnc(NC3(C)CC3)c2c1C(=O)Nc1cnn(C2CC2)c1 [Example 645, N-(1-Cyclopropyl-1H-pyrazol-4-yl)-6-methyl-4-[(1-methylcyclopropyl)amino]furo[2,3-d]pyrimidine-5-carboxamide]",10 to 100 nM
16,"Cc1oc2ncnc(NC3(C)CC3)c2c1C(=O)N1CC(F)(c2ccccc2)C1 [Example 314, 5-(3-Fluoro-3-phenylazetidine-1-carbonyl)-6-methyl-N-(1-methylcyclopropyl)furo[2,3-d]pyrimidin-4-amine]",10 to 100 nM
17,"Cc1nc(CNC(=O)c2c(C)oc3ncnc(NC4(C)CC4)c23)c(C)o1 [Example 112, N-[(Dimethyl-1,3-oxazol-4-yl)methyl]-6-methyl-4-[(1-methylcyclopropyl)amino]furo[2,3-d]pyrimidine-5-carboxamide]",10 to 100 nM
18,"Cc1oc2ncnc(NC3(C)CC3)c2c1C(=O)NCc1nc2cc(F)ccc2n1C [Example 733, N-[(5-Fluoro-1-methyl-1H-1,3-benzodiazol-2-yl)methyl]-6-methyl-4-[(1-methylcyclopropyl)amino]furo[2,3-d]pyrimidine-5-carboxamide]",10 to 100 nM
19,"Cc1oc2ncnc(NC3(C)CC3)c2c1C(=O)N1CCc2ncc(O)cc2C1 [Example 333, 6-{6-Methyl-4-[(1-methylcyclopropyl)amino]furo[2,3-d]pyrimidine-5-carbonyl}-5,6,7,8-tetrahydro-1,6-naphthyridin-3-ol]",100 to 1000 nM
20,"Cc1oc2ncnc(NC3(C)CC3)c2c1C(=O)NC1CCN(c2cnccn2)CC1 [Example 660, 6-Methyl-4-[(1-methylcyclopropyl)amino]-N-[1-(pyrazin-2-yl)piperidin-4-yl]furo[2,3-d]pyrimidine-5-carboxamide]",10 to 100 nM
21,"Cc1oc2ncnc(NC3(C)CC3)c2c1C(=O)NCc1cocn1 [Example 100, 6-Methyl-4-[(1-methylcyclopropyl)amino]-N-(1,3-oxazol-4-ylmethyl)furo[2,3-d]pyrimidine-5-carboxamide]",10 to 100 nM
22,"CCOCCNC(=O)c1c(C)oc2ncnc(NC3(C)CC3)c12 [Example 171, N-(2-Rthoxyethyl)-6-methyl-4-[(1-methylcyclopropyl)amino]furo[2,3-d]pyrimidine-5-carboxamide]",100 to 1000 nM
23,"CCOCC1(CNC(=O)c2c(C)oc3ncnc(NC4(C)CC4)c23)CC1 [Example 275, N-{[1-(Ethoxymethyl)cyclopropyl]methyl}-6-methyl-4-[(1-methylcyclopropyl)amino]furo[2,3-d]pyrimidine-5-carboxamide]",10 to 100 nM
24,"Cc1oc2ncnc(NC3(C)CC3)c2c1C(=O)NCc1cccs1 [Example 190, 6-Methyl-4-[(1-methylcyclopropyl)amino]-N-(thiophen-2-ylmethyl)furo[2,3-d]pyrimidine-5-carboxamide]",10 to 100 nM
